{"source": "patent US7323314B2", "about": "“Members of the capsaicin/vanilloid receptor family of proteins and uses thereof” (Bayer HealthCare AG, priority 1998, dated 2008)", "key": {"[1]": {"target": "T1, Human VR2 (Homo sapiens, UniProt Q9Y5S1)", "T1 construct": "expressed in transfected cells; host or cells: Xenopus oocytes injected with cRNA", "T1 sequence (Q9Y5S1 1-764)": "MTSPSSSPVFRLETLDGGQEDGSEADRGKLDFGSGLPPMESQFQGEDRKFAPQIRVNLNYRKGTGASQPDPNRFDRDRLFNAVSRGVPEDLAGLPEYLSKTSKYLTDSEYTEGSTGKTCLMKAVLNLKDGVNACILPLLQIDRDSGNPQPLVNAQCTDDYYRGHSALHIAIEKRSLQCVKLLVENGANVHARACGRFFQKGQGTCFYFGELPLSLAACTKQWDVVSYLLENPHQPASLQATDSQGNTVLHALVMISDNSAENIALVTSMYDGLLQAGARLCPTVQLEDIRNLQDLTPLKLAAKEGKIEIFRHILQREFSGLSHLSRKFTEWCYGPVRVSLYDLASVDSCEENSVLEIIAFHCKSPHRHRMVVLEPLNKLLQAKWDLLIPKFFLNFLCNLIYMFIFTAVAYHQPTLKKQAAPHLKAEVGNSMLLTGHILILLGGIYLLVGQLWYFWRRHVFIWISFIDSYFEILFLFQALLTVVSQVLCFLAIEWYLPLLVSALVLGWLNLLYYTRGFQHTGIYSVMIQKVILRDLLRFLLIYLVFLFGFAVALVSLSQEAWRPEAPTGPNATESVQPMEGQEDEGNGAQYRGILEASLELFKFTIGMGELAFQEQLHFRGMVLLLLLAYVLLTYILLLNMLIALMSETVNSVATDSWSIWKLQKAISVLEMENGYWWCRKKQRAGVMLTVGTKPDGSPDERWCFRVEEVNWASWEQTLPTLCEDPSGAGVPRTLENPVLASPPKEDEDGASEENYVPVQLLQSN", "test": "Whole-cell patch-clamp of VR2 transiently expressed in HEK293 cells", "format": "cell-based", "description": "Human VR2 was functionally characterized in both HEK293 cells and Xenopus oocytes using electrophysiological methods. VR2 (in the pcDNA3.1 vector purchased by Invitrogen) was transiently expressed in HEK293 cells (ATCC) and recordings were performed 48 hours after transfection of cells using the whole-cell patch-clamp method (described in Bertil Hille, Ionin Channels of excitable membranes, 1992; Hammill et al. (1981) Pluger Arch. 391:85-100)."}, "[2]": {"target": "T1, Human VR2", "test": "Two-electrode voltage-clamp of VR2 in Xenopus oocytes", "format": "cell-based", "conditions": "heat stimulation (48-50° C.), 1-10 μM concentration", "description": "For the oocyte studies, human VR2 was subcloned into an oocyte expression vector containing 5′- and 3′-UTR of Xenopus β-globin (Chiara et al. (1999) Biochemistry 38(20)6689-6698). In vitro trasncription was carried out as described in Chiara et al. (supra) and cRNA (10-100 ng) was then injected into the oocytes. VR2 function was characterized in the oocytes 48 hours after cRNA injection using a standard two-electrode voltage-clamp."}, "[3]": {"target": "T1, Human VR2", "test": "Binding of [3H]-resiniferatoxin to membranes isolated from HEK293 cell homogenates (VR2)", "conditions": "0.1-10 nM concentration"}, "[4]": {"target": "T2, human VR1 (Homo sapiens, UniProt Q8NER1, A11T/S41P/T469I)", "T2 construct": "expressed in transfected cells; host or cells: HEK293 cells (membranes)", "T2 sequence (Q8NER1 whole entry A11T/S41P/T469I)": "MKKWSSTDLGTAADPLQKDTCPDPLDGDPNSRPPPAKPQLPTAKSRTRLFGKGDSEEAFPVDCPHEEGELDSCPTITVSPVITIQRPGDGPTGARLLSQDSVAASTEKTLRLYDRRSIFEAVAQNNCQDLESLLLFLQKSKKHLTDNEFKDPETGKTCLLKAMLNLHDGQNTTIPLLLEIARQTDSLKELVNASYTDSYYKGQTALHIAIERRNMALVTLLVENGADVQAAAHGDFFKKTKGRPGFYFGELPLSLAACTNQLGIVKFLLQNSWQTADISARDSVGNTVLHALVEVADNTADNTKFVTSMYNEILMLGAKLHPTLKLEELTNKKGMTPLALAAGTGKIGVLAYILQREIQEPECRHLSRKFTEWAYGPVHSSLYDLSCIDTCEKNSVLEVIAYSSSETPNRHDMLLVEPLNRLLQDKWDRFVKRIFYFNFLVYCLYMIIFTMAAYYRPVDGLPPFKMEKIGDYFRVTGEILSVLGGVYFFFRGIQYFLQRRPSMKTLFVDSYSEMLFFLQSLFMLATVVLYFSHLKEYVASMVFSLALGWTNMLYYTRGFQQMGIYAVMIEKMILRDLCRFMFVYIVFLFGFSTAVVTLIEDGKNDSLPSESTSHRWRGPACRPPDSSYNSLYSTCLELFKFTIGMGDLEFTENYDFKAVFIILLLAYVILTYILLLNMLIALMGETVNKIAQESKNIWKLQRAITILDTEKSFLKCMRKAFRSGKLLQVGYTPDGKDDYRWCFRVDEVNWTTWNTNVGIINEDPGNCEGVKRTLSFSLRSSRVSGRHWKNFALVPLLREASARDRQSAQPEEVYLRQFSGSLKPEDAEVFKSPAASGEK", "test": "Binding of [3H]-resiniferatoxin to membranes isolated from HEK293 cell homogenates (VR1)", "conditions": "0.1-10 nM concentration"}}, "data": [{"smiles": "COc1cc(CNC(=O)CCCC/C=C/C(C)C)ccc1O", "note": "[Capsaicin, capsaicin]", "values": [{"measurement": "induction of currents from VR2", "setting": "[1]; 1-10 μM concentration", "value": "do not induce any currents"}]}, {"smiles": "Oc1cc2c(cc1O)CN(C(=S)NCCc1ccc(Cl)cc1)CCC2", "note": "[capsazepin, capsazepine]", "values": [{"measurement": "block of the heat response of VR2", "setting": "[2]", "value": "blocks the heat response of VR2 reversibly"}, {"measurement": "block of heat-evoked currents of VR2", "setting": "[1]; heat stimulation (>50° C.), 10 μM concentration", "value": "reversibly blocked"}]}, {"smiles": "C=C(C)[C@]12C[C@@H](C)[C@@]34O[C@](Cc5ccccc5)(O[C@@H]1[C@@H]3C=C(COC(=O)Cc1ccc(O)c(OC)c1)C[C@]1(O)C(=O)C(C)=C[C@@H]41)O2", "note": "[resiniferatoxin]", "values": [{"measurement": "specific binding to VR2", "setting": "[3]", "value": "no specific binding"}, {"measurement": "binding to human VR1", "setting": "[4]", "value": "high affinities"}, {"measurement": "induction of currents from VR2", "setting": "[1]; 0.1-3 μM concentration", "value": "do not induce any currents"}]}]}
